Reference: PMC3323305 (2011)

Biological target: 18-kDa Translocator Protein (TSPO) (Homo sapiens, UniProt P30536, T147A)
Assay: radioligand competition against [3H]PK11195 in human platelet membranes
Format: binding

Sequence of 18-kDa Translocator Protein (TSPO) (P30536 2-169 T147A): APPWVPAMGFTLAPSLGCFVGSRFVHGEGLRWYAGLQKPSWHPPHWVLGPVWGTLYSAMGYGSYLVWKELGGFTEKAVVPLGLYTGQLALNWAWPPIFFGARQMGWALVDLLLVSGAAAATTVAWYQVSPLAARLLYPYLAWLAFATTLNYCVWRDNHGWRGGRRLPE

COc1ccccc1CN(C(C)=O)c1cnccc1Oc1ccccc1 [PBR28]
Ki: 2.17 ± 0.17 nM
